This note sets out measurements from US20110136792A1, “NOVEL CARBOXYLIC ACID ANALOGS AS GLYCOGEN SYNTHASE ACTIVATORS” (priority 2009, published 2011).

The assay concerns glycogen synthase. In words: Glycogen Synthase (GS) Assay. The class given is biochemical. Conditions: coupled pyruvate kinase/lactate dehydrogenase assay, absorbance at 340 nm; for EC50: compound concentration needed to give 50% maximum activation; for GS SC200: compound concentration needed to stimulate 200% of the enzyme activity. As for the experimental part: The following tests were carried out in order to determine the activity of the compounds of formula (I).
Twelve μL per well of substrate solution containing glycogen (4.32 mg/ml), 2.67 mM UDP-glucose, 21.6 mM phospho(enol)pyruvate and 2.7 mM NADH in 30 mM glycylglycine, pH 7.3 buffer was added into a polystyrene 384-well assay plate (BD Biosciences).
Compound solutions (8 μL/well) at various concentrations (0-300 μM) were added to the assay plate (columns 5-24). Compound solution contains 30 mM glycylglycine, pH 7.3, 40 mM KCl, 20 mM MgCl2, 9.2% DMSO, with (columns 15-24) or without (columns 5-14) 20 mM glucose 6-phosphate.
Enzyme solution (12 μL/well) containing glycogen synthase (16.88 μg/ml), pyruvate kinase (0.27 mg/ml), lactate dehydrogenase (0.27 mg/ml) in 50 mM Tris-HCl, pH 8.0, 27 mM DTT and bovine serum albumin (BSA, 0.2 mg/ml) was added to the assay plate (columns 3-24). As a blank control, enzyme solution without glycogen synthase was added into the top half wells of columns 1-2. To the bottom half wells of columns 1-2 were added a known activator, glucose 6-phosphate (at final concentration 5 mM) in addition to the enzyme solution. The reaction mixture was incubated at room temperature. The assay plate was then read for absorbance at 340 nm on an Envision reader every 3 minutes up to a total of 15 minutes.
The enzyme activity (with or without compound) was calculated by the reaction rate and represented by the optical density change (δOD) per minute. Percent stimulation of glycogen synthase activity by a compound at various concentrations was calculated by the following formula: […]
Where Rs is the reaction rate of the enzyme in the presence of compound and Rt is the reaction rate of the enzyme in the absence of compound.
SC200 is defined as the compound concentration that is needed to stimulate 200% of the enzyme activity. EC50 is defined as the compound concentration that is needed to give 50% maximum activation.
Compounds from Examples 1 through Example 64 were assayed according to assay procedures described above and the result is listed in Table 1 below: […]

For the compound `CCS(=O)(=O)N(CC(=O)O)Cc1cccc(COc2ccc(-c3cc(F)c(F)cc3F)cc2)c1` [Example 18, {Ethanesulfonyl-[3-(2′,4′,5′-trifluoro-biphenyl-4-yloxymethyl)-benzyl]-amino}-acetic acid], the EC50 worked out at 160 nM and the “GS SC200” value was 0.07 µM.
Take `COC(=O)N(CC(=O)O)Cc1cccc(COc2ccc(-c3cc(F)c(F)cc3OC)cc2)c1` [Example 19, {[3-(4′,5′-Difluoro-2′-methoxy-biphenyl-4-yloxymethyl)-benzyl]-methoxycarbonyl-amino}-acetic acid]: the EC50 was 1820 nM and the “GS SC200” value was determined as 0.42 µM.
Turning to `CCOC(=O)N(CC(=O)O)Cc1cccc(COc2ccc(-c3cc(F)c(F)cc3OC)cc2)c1` [Example 20, {[3-(4′,5′-Difluoro-2′-methoxy-biphenyl-4-yloxymethyl)-benzyl]-ethoxycarbonyl-amino}-acetic acid], the EC50 was determined as 5240 nM and the “GS SC200” value is 0.50 µM.
Turning to `COc1cc(F)c(F)cc1-c1ccc(OCc2cccc(CN(CC(=O)O)C(C)=O)c2)cc1` [Example 21, {Acetyl-[3-(4′,5′-difluoro-2′-methoxy-biphenyl-4-yloxymethyl)-benzyl]-amino}-acetic acid], the EC50 worked out at 430 nM and the “GS SC200” value was 0.16 µM.
Take `COc1cc(F)c(F)cc1-c1ccc(OCc2cccc(CN(CC(=O)O)C(=O)C3CC3)c2)cc1` [Example 22, {Cyclopropanecarbonyl-[3-(4′,5′-difluoro-2′-methoxy-biphenyl-4-yloxymethyl)-benzyl]-amino}-acetic acid]: a half-maximal response (EC50) required 260 nM and the “GS SC200” value came out at 0.03 µM.
With `CCC(=O)N(CC(=O)O)Cc1cccc(COc2ccc(-c3cc(F)c(F)cc3OC)cc2)c1` [Example 23, {[3-(4′,5′-Difluoro-2′-methoxy-biphenyl-4-yloxymethyl)-benzyl]-propionyl-amino}-acetic acid], a half-maximal effect (EC50) was put at 370 nM and the “GS SC200” value came to 0.10 µM.
For the compound `COc1cc(F)c(F)cc1-c1ccc(OCc2cccc(CN(CC(=O)O)C(=O)CC3CC3)c2)cc1` [Example 24, {(2-Cyclopropyl-acetyl)-[3-(4′,5′-difluoro-2′-methoxy-biphenyl-4-yloxymethyl)-benzyl]-amino}-acetic acid], the EC50 stood at 730 nM and the “GS SC200” value was determined as 0.12 µM.
Consider `COc1cc(F)c(F)cc1-c1ccc(OCc2cccc(CN(CC(=O)O)C(=O)[C@@H]3CCCO3)c2)cc1` [Example 25, [[3-(4′,5′-Difluoro-2′-methoxy-biphenyl-4-yloxymethyl)-benzyl]-((S)-tetrahydro-furan-2-carbonyl)-amino]-acetic acid], for which a half-maximal response (EC50) required 410 nM and the “GS SC200” value is 0.07 µM.
As for `COCCC(=O)N(CC(=O)O)Cc1cccc(COc2ccc(-c3cc(F)c(F)cc3OC)cc2)c1` [Example 26, [[3-(4′,5′-Difluoro-2′-methoxy-biphenyl-4-yloxymethyl)-benzyl]-(3-methoxy-propionyl)-amino]-acetic acid], the EC50 is 450 nM and the “GS SC200” value is 0.05 µM.
With `COc1cc(F)c(F)cc1-c1ccc(OCc2cccc(CN(CC(=O)O)C(=O)c3cscn3)c2)cc1` [Example 27, [[3-(4′,5′-Difluoro-2′-methoxy-biphenyl-4-yloxymethyl)-benzyl]-(thiazole-4-carbonyl)-amino]-acetic acid], the EC50 turned out to be 520 nM and the “GS SC200” value is 0.08 µM.
For `COCC(=O)N(CC(=O)O)Cc1cccc(COc2ccc(-c3cc(F)c(F)cc3OC)cc2)c1` [Example 28, [[3-(4′,5′-Difluoro-2′-methoxy-biphenyl-4-yloxymethyl)-benzyl]-(2-methoxy-acetyl)-amino]-acetic acid], the EC50 turned out to be 410 nM and the “GS SC200” value turned out to be 0.06 µM.
For `COc1cc(F)c(F)cc1-c1ccc(OCc2cccc(CN(CC(=O)O)C(=O)c3cn(C)cn3)c2)cc1` [Example 29, [[3-(4′,5′-Difluoro-2′-methoxy-biphenyl-4-yloxymethyl)-benzyl]-(1-methyl-1H-imidazole-4-carbonyl)-amino]-acetic acid], the EC50 turned out to be 340 nM and the “GS SC200” value came out at 0.01 µM.
On to `COc1cc(F)c(F)cc1-c1ccc(OCc2cccc(CN(CC(=O)O)C(=O)c3cccnc3)c2)cc1` [Example 30, [[3-(4′,5′-difluoro-2′-methoxy-biphenyl-4-yloxymethyl)-benzyl]-(pyridine-3-carbonyl)-amino]-acetic acid], for which the response was half-maximal at 470 nM (EC50) and the “GS SC200” value stood at 0.04 µM.
`COCC(C)C(=O)N(CC(=O)O)Cc1cccc(COc2ccc(-c3cc(F)c(F)cc3OC)cc2)c1` (centres unmarked) [Example 31]: it took 480 nM to reach a half-maximal effect (EC50) and the “GS SC200” value is 0.07 µM.
Turning to `COc1cc(F)c(F)cc1-c1ccc(OCc2cccc(CN(CC(=O)O)C(=O)C3CCN(C)CC3)c2)cc1` [Example 32, [[3-(4′,5′-Difluoro-2′-methoxy-biphenyl-4-yloxymethyl)-benzyl]-(1-methyl-piperidine-4-carbonyl)-amino]-acetic acid], the EC50 is 610 nM and the “GS SC200” value stood at 0.07 µM.
Take `COc1cc(F)c(F)cc1-c1ccc(OCc2cccc(CN(CC(=O)O)C(=O)[C@H]3CCCO3)c2)cc1` [Example 33, [[3-(4′,5′-Difluoro-2′-methoxy-biphenyl-4-yloxymethyl)-benzyl]-((R)-tetrahydro-furan-2-carbonyl)-amino]-acetic acid]: the response was half-maximal at 350 nM (EC50) and the “GS SC200” value is 0.02 µM.
For the compound `COc1cc(F)c(F)cc1-c1ccc(OCc2cccc(CN(CC(=O)O)C(=O)C3CCOC3)c2)cc1` (centres unmarked) [Example 34, [[3-(4′,5′-Difluoro-2′-methoxy-biphenyl-4-yloxymethyl)-benzyl]-(tetrahydro-furan-3-carbonyl)-amino]-acetic acid], the EC50 is 280 nM and the “GS SC200” value came out at 0.04 µM.
As for `COc1cc(F)c(F)cc1-c1ccc(OCc2cccc(CN(CC(=O)O)Cc3ccccc3)c2)cc1` [Example 35, {Benzyl-[3-(4′,5′-difluoro-2′-methoxy-biphenyl-4-yloxymethyl)-benzyl]-amino}-acetic acid], the response was half-maximal at 1460 nM (EC50) and the “GS SC200” value worked out at 0.46 µM.
For `CCN(CC(=O)O)Cc1cccc(COc2ccc(-c3cc(F)c(F)cc3OC)cc2)c1` [Example 36, {[3-(4′,5′-Difluoro-2′-methoxy-biphenyl-4-yloxymethyl)-benzyl]-ethyl-amino}-acetic acid], in that order: 1930 nM and 0.50 µM.
As for `COc1cc(F)c(F)cc1-c1ccc(OCc2cccc(CNCC(=O)O)c2)cc1.Cl` [Example 37, [3-(4′,5′-Difluoro-2′-methoxy-biphenyl-4-yloxymethyl)-benzylamino]-acetic acid], the midpoint of the response, the EC50, lay at 4900 nM and the “GS SC200” value was 0.38 µM.
For `O=C(O)C1CCS(=O)(=O)N1Cc1ccc(F)c(COc2ccc(-c3ccc(F)cc3F)cc2)c1` (centres unmarked) [Example 41, 2-[3-(2′,4′-Difluoro-biphenyl-4-yloxymethyl)-4-fluoro-benzyl]-1,1-dioxo-1lambda*6*-isothiazolidine-3-carboxylic acid], the EC50 turned out to be 150 nM and the “GS SC200” value is 0.07 µM.
The like results for `O=C(O)C1CCS(=O)(=O)N1Cc1cc(COc2ccc(-c3ccc(F)cc3F)cc2)ccc1F` (centres unmarked) [Example 42, 2-[5-(2′,4′-Difluoro-biphenyl-4-yloxymethyl)-2-fluoro-benzyl]-1,1-dioxo-1lambda*6*-isothiazolidine-3-carboxylic acid] were, in that order, 180 nM and 0.06 µM.
As for `COc1cc(F)c(F)cc1-c1ccc(OCc2cccc(CN3[C@@H](C(=O)O)CCS3(=O)=O)c2)cc1` [Example 44, (R)-2-[3-(4′,5′-Difluoro-2′-methoxy-biphenyl-4-yloxymethyl)-benzyl]-1,1-dioxo-1lambda*6*-isothiazolidine-3-carboxylic acid], the EC50 is 380 nM and the “GS SC200” value was 0.09 µM.
The like results for `COc1cc(F)c(F)cc1-c1ccc(OCc2cccc(CN3[C@H](C(=O)O)CCS3(=O)=O)c2)cc1` [Example 45, (S)-2-[3-(4′,5′-Difluoro-2′-methoxy-biphenyl-4-yloxymethyl)-benzyl]-1,1-dioxo-1lambda*6*-isothiazolidine-3-carboxylic acid] were, in that order, 120 nM and 0.02 µM.
As to `O=C(O)[C@@H]1CCS(=O)(=O)N1Cc1cccc(COc2ccc(-c3cc(F)c(F)cc3F)cc2)c1` [Example 46, (S)-1,1-Dioxo-2-[3-(2′,4′,5′-trifluoro-biphenyl-4-yloxymethyl)-benzyl]-1lambda*6*-isothiazolidine-3-carboxylic acid], it took 90 nM to reach a half-maximal effect (EC50) and the “GS SC200” value turned out to be 0.01 µM.
